From patent US20260001914A1, “MACROCYCLIC PEPTIDES TARGETING KRAS” (Merck Sharp & Dohme LLC, priority 2022, published 2026)
*1 amine or outer side, *2 acyl side, *3 side chain or, on linkers, in order; H or OH if unused. Where a SMILES comes first, the peptide text is derived from it. Bridges are numbered along the chain shown (N, C = ends). [ ]: non-standard residue; d: D form. Phe(4-guanidino) = N=C(N)Nc1ccc(C[C@H](N)C(=O)O)cc1; X76 = CN(CCC[C@@H](C(=O)[*:2])N(C)[*:1])S(C)(=O)=O; Ala(pyrimidin-5-yl) = N[C@@H](Cc1cncnc1)C(=O)O; X6 = O=C([C@H](Cc1cnn(C2COC2)c1)N[*:1])[*:2]; X51 = COc1cc(C[C@H](N[*:1])C(=O)[*:2])ncn1; Arg(Me2s) = CN=C(NC)NCCC[C@H](N)C(=O)O; Phe(2-CN) = N#Cc1ccccc1C[C@H](N)C(=O)O; Phe(3-F) = N[C@@H](Cc1cccc(F)c1)C(=O)O; Phe(3-Me) = Cc1cccc(C[C@H](N)C(=O)O)c1; 1Nal = N[C@@H](Cc1cccc2ccccc12)C(=O)O; Phe(2-F) = N[C@@H](Cc1ccccc1F)C(=O)O; X31 = O=C([C@H](CCC1CC1)N[*:1])[*:2]; NMe3Pal = CN[C@@H](Cc1cccnc1)C(=O)O; X1 = O=C(C12CC(CN[*:1])(C1)C2)[*:2]; Ala(cPr) = N[C@@H](CC1CC1)C(=O)O; NMeF = CN[C@@H](Cc1ccccc1)C(=O)O; PhLac = O=C(O)[C@@H](O)Cc1ccccc1; 3Pal = N[C@@H](Cc1cccnc1)C(=O)O; d3Pal = N[C@H](Cc1cccnc1)C(=O)O; Ahp(2) = CCCCC[C@H](N)C(=O)O; Cba = N[C@@H](CC1CCC1)C(=O)O; hLeu = CC(C)CC[C@H](N)C(=O)O; X64 = O=C(C#CCN[*:1])[*:2]; αMeC = C[C@](N)(CS)C(=O)O; NMeA = CN[C@@H](C)C(=O)O; Nle = CCCC[C@H](N)C(=O)O; Pra = C#CC[C@H](N)C(=O)O

target: KRAS-G12D protein (Homo sapiens, UniProt P01116, G12D); assay: SOS-mediated nucleotide exchange assay (BODIPY-GDP / Tb-streptavidin TR-FRET); assay type: biochemical
Sequence (P01116 1-188 isoform P01116-2 G12D): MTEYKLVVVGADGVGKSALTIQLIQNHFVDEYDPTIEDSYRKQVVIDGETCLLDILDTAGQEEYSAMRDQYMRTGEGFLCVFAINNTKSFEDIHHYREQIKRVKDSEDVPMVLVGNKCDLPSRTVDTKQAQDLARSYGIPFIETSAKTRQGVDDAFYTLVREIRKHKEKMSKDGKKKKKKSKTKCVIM

With `CCCC[C@@H]1NC(=O)[C@H](Cc2cncnc2)NC(=O)[C@H](C)N(C)C(=O)[C@H](Cc2ccccc2)OC(=O)C23CC(CNC(=O)[C@H](Cc4ccccc4)N(C)C(=O)[C@H](CCCC)NC(=O)[C@H](Cc4ccccc4F)NC1=O)(C2)C3` [compound 230, cyclo(FLac-NMeA-PyrimAla-Nle-Phe2F-Nle-NMeF-amBCP)] (cyclo([NMeA][Ala(pyrimidin-5-yl)][Nle][Phe(2-F)][Nle][NMeF][X1][PhLac])) as the molecule, how does the EC50 read?
The EC50 was 17.4 nM.

For `CCCC[C@@H]1NC(=O)[C@H](Cc2ccc(OC)cc2)NC(=O)[C@H](CC(C)C)NC(=O)[C@H](Cc2ccc(NC(=N)N)cc2)NC(=O)[C@H](CCCN=C(NC)NC)NC(=O)[C@H](Cc2ccccc2)NC(=O)CSC[C@H](C(N)=O)NC(=O)[C@H](Cc2ccccc2)N(C)C1=O` [compound 46, cyclo(F-ArgMeMe-Phe4Gn-L-TyrOMe-Nle-NMeF-dCl-ClAc)] ({CH2CO}-F[Arg(Me2s)][Phe(4-guanidino)]LY(Me)[Nle][NMeF][dC]-NH2; thioether N-8), which EC50 is on record?
Its EC50 is 1160 nM.

How did the EC50 turn out when `CC(C)CC[C@@H]1NC(=O)[C@H](Cc2cccc(F)c2)NC(=O)[C@H](CC2CCC2)NC(=O)[C@H](Cc2cncnc2)NC(=O)[C@H](C)N(C)C(=O)[C@H](Cc2ccccc2)OC(=O)C23CC(CNC(=O)[C@H](Cc4ccccc4)N(C)C1=O)(C2)C3` [compound 303, cyclo(FLac-NMeA-PyrimAla-cBuA-Phe3F-hL-NMeF-amBCP)] (cyclo([Cba][Phe(3-F)][hLeu][NMeF][X1][PhLac][NMeA][Ala(pyrimidin-5-yl)])) was run?
The EC50 was 60.9 nM.

Which EC50 does the source give for `CCCC[C@@H]1NC(=O)[C@H](Cc2cccnc2)NC(=O)[C@H](CCCN(C)S(C)(=O)=O)N(C)C(=O)[C@H](Cc2ccccc2)OC(=O)C23CC(CNC(=O)[C@H](Cc4cccnc4)N(C)C(=O)[C@H](CCCC)NC(=O)[C@H](Cc4ccccc4F)NC1=O)(C2)C3` [compound 406, cyclo(FLac-NMeOmSuf-3Pal-Nle-Phe2F-Nle-NMe3Pal-amBCP)] (cyclo([3Pal][Nle][Phe(2-F)][Nle][NMe3Pal][X1][PhLac][X76])) here?
The EC50 was 26 nM.

`CC(C)CC[C@@H]1NC(=O)[C@H](Cc2cnn(C3COC3)c2)NC(=O)[C@H](CC2CC2)NC(=O)[C@H](Cc2cncnc2)NC(=O)[C@H](C)N(C)C(=O)[C@H](Cc2ccccc2)OC(=O)C23CC(CNC(=O)[C@H](Cc4ccccc4)N(C)C1=O)(C2)C3` [compound 300, cyclo(FLac-NMeA-PyrimAla-cPrA-AlaPyz1Ox-hL-NMeF-amBCP)] (cyclo([Ala(cPr)][X6][hLeu][NMeF][X1][PhLac][NMeA][Ala(pyrimidin-5-yl)])) was tested. Which EC50 did it give?
Its EC50 is 254 nM.

`CCCC[C@@H]1NC(=O)[C@H](Cc2ccccc2F)NC(=O)[C@H](CC2CCC2)NC(=O)[C@@H](Cc2cccnc2)NC(=O)[C@H](CCCNC(=N)N)NC(=O)[C@H](Cc2ccccc2)NC(=O)C#CCNC(=O)[C@H](Cc2cccnc2)N(C)C1=O` [compound 104, cyclo(F-R-d3Pal-cBuA-Phe2F-Nle-NMe3Pal-amBYA)] (cyclo(FR[d3Pal][Cba][Phe(2-F)][Nle][NMe3Pal][X64])) was tested. Which EC50 did it give?
The EC50 was 387 nM.

`CCCCC[C@@H]1NC(=O)[C@H](Cc2ccc(O)cc2)NC(=O)[C@H](CC(C)C)NC(=O)[C@H](Cc2ccc(O)cc2)NC(=O)[C@H](CCCNC(=N)N)NC(=O)[C@H](Cc2cccc3ccccc23)NC(=O)CSC[C@@H](C(N)=O)NC(=O)[C@H](Cc2ccccc2)N(C)C1=O` [compound 7, cyclo(INal-R-Y-L-Y-Ahp-NMeF-Cl-ClAc)] ({CH2CO}-[1Nal]RYLY[Ahp(2)][NMeF]C-NH2; thioether N-8) was tested. Which EC50 did it give?
Its EC50 is 1630 nM.

For `CCCC[C@@H]1NC(=O)[C@H](Cc2cccnc2)NC(=O)[C@H](C)N(C)C(=O)[C@H](Cc2cccc(C)c2)NC(=O)C23CC(CNC(=O)[C@H](Cc4cccnc4)N(C)C(=O)[C@H](CCCC)NC(=O)[C@H](Cc4ccccc4F)NC1=O)(C2)C3` [compound 166, cyclo(Phe3Me-NMeA-3Pal-Nle-Phe2F-Nle-NMe3Pal-amBCP)] (cyclo([3Pal][Nle][Phe(2-F)][Nle][NMe3Pal][X1][Phe(3-Me)][NMeA])), which EC50 is on record?
The EC50 was 22.3 nM.

Which EC50 does the source give for `CCCCC[C@@H]1NC(=O)[C@H](Cc2ccc(O)cc2)NC(=O)[C@H](CC(C)C)NC(=O)[C@H](Cc2ccc(O)cc2)NC(=O)[C@H](CCCNC(=N)N)NC(=O)[C@H](Cc2ccccc2)NC(=O)CSC[C@H](C(N)=O)NC(=O)[C@H](Cc2ccccc2)N(C)C1=O` [compound 3, cyclo(F-R-Y-L-Y-Ahp-NMeF-dCl-ClAc)] here?
Its EC50 is 966 nM.

Which EC50 does the source give for `COc1ccc(C[C@@H]2NC(=O)[C@H](CC3CCC3)NC(=O)[C@H](Cc3cccnc3)NC(=O)[C@H](CCCNC(=N)N)NC(=O)[C@H](Cc3ccccc3)NC(=O)CSC[C@](C)(C(N)=O)NC(=O)[C@@H]3CCCCCCCC[C@H](NC2=O)C(=O)N3C)cc1` (single isomer, unassigned) [SEQ ID NO: 191] here?
The EC50 was 324 nM.

Which EC50 does the source give for `CCCCC[C@@H]1NC(=O)[C@H](Cc2ccccc2C#N)NC(=O)[C@H](CC2CCC2)NC(=O)[C@H](Cc2cccnc2)NC(=O)[C@H](CCCNC(=N)N)NC(=O)[C@H](Cc2ccccc2)NC(=O)CSC[C@@](C)(C(N)=O)NC(=O)[C@H](Cc2ccccc2)N(C)C1=O` [compound 375, cyclo(F-R-3Pal-cBuA-Phe2CN-Ahp-NMeF-aMeCl-ClAc)] ({CH2CO}-FR[3Pal][Cba][Phe(2-CN)][Ahp(2)][NMeF][αMeC]-NH2; thioether N-8) here?
The EC50 was 57.9 nM.

`CCCC[C@@H]1NC(=O)[C@H](Cc2cc(OC)ncn2)NC(=O)[C@H](C)N(C)C(=O)[C@H](Cc2ccccc2)OC(=O)C23CC(CNC(=O)[C@H](Cc4ccccc4)N(C)C(=O)[C@H](CCCC)NC(=O)[C@H](Cc4ccccc4F)NC1=O)(C2)C3` [compound 306, cyclo(FLac-NMeA-Ala6Pyrim4OMe-Nle-Phe2F-Nle-NMeF-amBCP)] (cyclo([NMeA][X51][Nle][Phe(2-F)][Nle][NMeF][X1][PhLac])) was tested. Which EC50 did it give?
The EC50 was 7000 nM.

How did the EC50 turn out when `CCCC[C@@H]1NC(=O)[C@H](Cc2ccc(O)cc2)NC(=O)[C@H](CC(C)C)NC(=O)[C@H](Cc2ccc(NC(=N)N)cc2)NC(=O)[C@H](CCCNC(=N)N)NC(=O)[C@H](Cc2ccccc2)NC(=O)CSC[C@@H](C(N)=O)NC(=O)[C@H](Cc2ccccc2)N(C)C1=O` [compound 45, cyclo(F-R-Phe4Gn-L-Y-Nle-NMeF-Cl-ClAc)] ({CH2CO}-FR[Phe(4-guanidino)]LY[Nle][NMeF]C-NH2; thioether N-8) was run?
Its EC50 is 12.6 nM.

With `C#CC[C@@H]1NC(=O)[C@H](CC2CC2)NC(=O)[C@H](Cc2cncnc2)NC(=O)[C@H](C)N(C)C(=O)[C@H](Cc2ccccc2)OC(=O)C23CC(CNC(=O)[C@H](Cc4ccccc4)N(C)C(=O)[C@H](CCC(C)C)NC1=O)(C2)C3` [compound 286, cyclo(FLac-NMeA-PyrimAla-cPrA-Pra-hL-NMeF-amBCP)] (cyclo([Ala(cPr)][Pra][hLeu][NMeF][X1][PhLac][NMeA][Ala(pyrimidin-5-yl)])) as the molecule, how does the EC50 read?
Its EC50 is 1990 nM.

Which EC50 does the source give for `C[C@H]1C(=O)N[C@@H](Cc2cncnc2)C(=O)N[C@@H](CC2CC2)C(=O)N[C@@H](Cc2ccccc2F)C(=O)N[C@@H](CCC2CC2)C(=O)N(C)[C@@H](Cc2ccccc2)C(=O)NCC23CC(C2)(C3)C(=O)O[C@@H](Cc2ccccc2)C(=O)N1C` [compound 114, cyclo(FLac-NMeA-PyrimAla-cPrA-Phe2F-hcPrA-NMeF-amBCP)] (cyclo([Ala(cPr)][Phe(2-F)][X31][NMeF][X1][PhLac][NMeA][Ala(pyrimidin-5-yl)])) here?
Its EC50 is 2 nM.
